The record followed here is article PMC6792352, “Limited Chemical Structural Diversity Found to Modulate Thyroid Hormone Receptor in the Tox21 Chemical Library” (Environmental Health Perspectives, 2019).

Counter-ions that a name gives are not always drawn. Where only a bound is given, the exact number is not on record here.

The first series in a line: in vitro. The settings on record: rat, gh3-tre-luc cells, AC50 (uM) modified / 1000.
`CCCC(=O)Nc1c(I)cc(I)c(CC(CC)C(=O)O)c1I` (stereo not drawn) [Sodium tyropanoate]: the CC50 at 24 h is 26.5 µM.

Take `O=c1[nH]c(=O)c2[nH]c(=O)[nH]c2[nH]1` [Sodium urate]: the CC50 at 24 h was > 50 µM.

Take `Cc1ccc(S(=O)(=O)O)cc1C` [Sodium xylenesulfonate]: the CC50 at 24 h was > 90 µM.

In the case of `Cc1cc(CC(=O)O)n(C)c1C(=O)c1ccc(Cl)cc1` [Sodium zomepirac], the CC50 at 24 h is > 90 µM.

`CC(C)=CCOc1ccc(/C=C/C(=O)c2ccc(OCC=C(C)C)cc2OCC(=O)O)cc1` [Sofalcone] displayed a CC50 at 24 h of 43 µM.

The molecule `O=C(O[C@H]1CN2CCC1CC2)N1CCc2ccccc2[C@@H]1c1ccccc1` [Solifenacin hydrochloride] gave a CC50 at 24 h of 19.6 µM.

`CNC(=O)c1cc(Oc2ccc(NC(=O)Nc3ccc(Cl)c(C(F)(F)F)c3)cc2)ccn1` [Sorafenib tosylate] yielded a CC50 at 24 h of 9.89 µM.

As to `O=C1NC(=O)[C@@]2(CCOc3ccc(F)cc32)N1` [Sorbinil], the 50% cytotoxic concentration (CC50) at 24 h was > 50 µM.

On to `CCCCCCCCCCCC(=O)OC[C@@H](O)[C@H]1OC[C@H](O)[C@H]1O` [Sorbitan monododecanoate], for which the 50% cytotoxic concentration (CC50) at 24 h was > 50 µM.

Regarding `CCCCCCCCCCCCCCCC(=O)OC[C@@H](O)[C@H]1OC[C@H](O)[C@H]1O` [Sorbitan monohexadecanoate], the cytotoxic concentration (CC50) at 24 h is > 50 µM.

In the case of `CCCCCCCC/C=C\CCCCCCCC(=O)OC[C@@H](O)[C@H]1OC[C@H](O)[C@H]1O` [Sorbitan, mono-(9Z)-9-octadecenoate], the half-maximal cytotoxic concentration (CC50) at 24 h was > 50 µM.

`CC(C)NCC(O)c1ccc(NS(C)(=O)=O)cc1` (stereo not drawn) [Sotalol hydrochloride]: the CC50 at 24 h was > 90 µM.

Turning to `C[C@@H]1CN(c2c(F)c(N)c3c(=O)c(C(=O)O)cn(C4CC4)c3c2F)C[C@H](C)N1` [Sparfloxacin], the CC50 at 24 h was > 50 µM.

Consider `C1CCN2C[C@@H]3C[C@@H](CN4CCCC[C@@H]34)[C@H]2C1` [Sparteine], for which the CC50 at 24 h was > 20 µM.

`CN[C@@H]1[C@H](O)[C@H](NC)[C@H]2O[C@@]3(O)C(=O)C[C@@H](C)O[C@H]3O[C@@H]2[C@H]1O` [Spectinomycin dihydrochloride]: the CC50 at 24 h was > 20 µM.

As to `O=C1CSC2(CCN(CCCN3c4ccccc4Sc4ccc(Cl)cc43)CC2)N1` [Spiclomazine hydrochloride], the CC50 at 24 h was found to be 6.81 µM.

Consider `O=C(CCCN1CCC2(CC1)C(=O)NCN2c1ccccc1)c1ccc(F)cc1` [Spiperone], for which the midpoint of cytotoxicity, the CC50 at 24 h, lay at 14.1 µM.

For the molecule `CO[C@@H]1[C@@H](O[C@@H]2O[C@H](C)[C@@H](O[C@H]3C[C@@](C)(O)[C@@H](O)[C@H](C)O3)[C@H](N(C)C)[C@H]2O)[C@@H](CC=O)C[C@@H](C)[C@@H](O[C@H]2CC[C@H](N(C)C)[C@@H](C)O2)/C=C/C=C/C[C@@H](C)OC(=O)C[C@H]1OC(C)=O` [Spiramycin II], the cytotoxic concentration (CC50) at 24 h was found to be 32.1 µM.

As to `CCOC(=O)[C@H](CCc1ccccc1)N[C@@H](C)C(=O)N1CC2(C[C@H]1C(=O)O)SCCS2` [Spirapril hydrochloride], the CC50 at 24 h was > 50 µM.

For `CCC(C)(C)C(=O)OC1=C(c2ccc(Cl)cc2Cl)C(=O)OC12CCCCC2` [Spirodiclofen], the CC50 at 24 h is > 90 µM.

On to `Cc1cc(C)c(C2=C(OC(=O)CC(C)(C)C)C3(CCCC3)OC2=O)c(C)c1` [Spiromesifen], for which the CC50 at 24 h was > 100 µM.

Consider `CCOC(=O)OC1=C(c2cc(C)ccc2C)C(=O)N[C@]12CC[C@@H](OC)CC2` [Spirotetramat], for which the CC50 at 24 h was > 90 µM.

Consider `CCCN(CC)CC1COC2(CCC(C(C)(C)C)CC2)O1` (stereo not drawn) [Spiroxamine], for which the half-maximal cytotoxic concentration (CC50) at 24 h was > 90 µM.

For the molecule `O=C1NCN(c2ccccc2)C12CCN(CC1COc3ccccc3O1)CC2` (stereo not drawn) [Spiroxatrine], half-maximal cytotoxicity (CC50 at 24 h) was put at 36.3 µM.

Consider `CC(C)CCCC(C)CCCC(C)CCCCC(C)CCCC(C)CCCC(C)C` (stereo not drawn) [Squalane], for which the CC50 at 24 h was > 50 µM.

Regarding `O=c1c(O)c(O)c1=O` [Squaric acid], the 50% cytotoxic concentration (CC50) at 24 h was > 90 µM.

With `Cn1cc(NC(=O)c2cc(NC(=O)c3cc(NC=O)cn3C)cn2C)cc1C(=O)NCCC(=N)N` [Stallimycin], the 50% cytotoxic concentration (CC50) at 24 h was > 50 µM.

For `Cc1cn([C@H]2C=C[C@@H](CO)O2)c(=O)[nH]c1=O` [Stavudine], the CC50 at 24 h is > 90 µM.

As for `C=C(C)C(=O)OCCCCCCCCCCCCCCCCCC` [Stearyl methacrylate], the CC50 at 24 h was > 20 µM.

For the molecule `CC[N+](CC)(CC)CCOc1ccc(/C=C/c2ccccc2)cc1` [Stilonium iodide], the CC50 at 24 h was > 50 µM.

Consider `CC(C)(C)C(O)/C=C/c1ccc2c(c1)OCO2` (stereo not drawn) [Stiripentol], for which the CC50 at 24 h was > 50 µM.

As for `[H]/N=C(/N)N[C@H]1[C@H](O)[C@@H](O)[C@H](O[C@@H]2O[C@@H](C)[C@](O)(C=O)[C@H]2O[C@@H]2O[C@@H](CO)[C@H](O)[C@@H](O)[C@@H]2NC)[C@@H](N/C(N)=N\[H])[C@@H]1O` [Streptomycin sulfate (2:3)], the half-maximal cytotoxic concentration (CC50) at 24 h is > 50 µM.

`CC1(C)C2(Cl)C(Cl)C(Cl)C(Cl)(C(Cl)Cl)C1(Cl)C2Cl` (stereo not drawn) [Strobane] displayed a half-maximal cytotoxic concentration (CC50) at 24 h of 21 µM. That is a double-digit micromolar value.

On to `O=C1C[C@@H]2OCC=C3CN4CC[C@]56c7ccccc7N1[C@H]5[C@H]2[C@H]3C[C@H]46` [Strychnine], for which the CC50 at 24 h was > 50 µM.

Turning to `OCC(O)c1ccccc1` (stereo not drawn) [Styrene glycol], the CC50 at 24 h was > 90 µM.

Turning to `c1ccc(C2CO2)cc1` (stereo not drawn) [Styrene oxide], the CC50 at 24 h is > 90 µM.

`C=Cc1ccccc1` [Styrene]: the CC50 at 24 h was > 90 µM.

Turning to `O=C1CCC(=O)O1` [Succinic anhydride], the CC50 at 24 h is > 90 µM.

Regarding `C[N+](C)(C)CCOC(=O)CCC(=O)OCC[N+](C)(C)C` [Succinylcholine chloride], the CC50 at 24 h was > 50 µM.

Turning to `O=C(O)CCC(=O)Nc1ccc(S(=O)(=O)Nc2nccs2)cc1` [Succinylsulfathiazole], the CC50 at 24 h is > 20 µM.

Consider `OC[C@H]1O[C@H](O[C@]2(CCl)O[C@H](CCl)[C@@H](O)[C@@H]2O)[C@H](O)[C@@H](O)[C@H]1Cl` [Sucralose], for which the CC50 at 24 h was > 90 µM.

Regarding `CC(=O)OC[C@H]1O[C@@](COC(C)=O)(O[C@H]2O[C@H](COC(C)=O)[C@@H](OC(C)=O)[C@H](OC(C)=O)[C@H]2OC(C)=O)[C@@H](OC(C)=O)[C@@H]1OC(C)=O` [Sucrose octaacetate], the CC50 at 24 h was > 70 µM.

As to `O=S(=O)(O)OC[C@H]1O[C@@](COS(=O)(=O)O)(O[C@H]2O[C@H](COS(=O)(=O)O)[C@@H](OS(=O)(=O)O)[C@H](OS(=O)(=O)O)[C@H]2OS(=O)(=O)O)[C@@H](OS(=O)(=O)O)[C@@H]1OS(=O)(=O)O` [Sucrose octasulfate, sodium salt], the 50% cytotoxic concentration (CC50) at 24 h is > 50 µM.

As for `OC[C@H]1O[C@@](CO)(O[C@H]2O[C@H](CO)[C@@H](O)[C@H](O)[C@H]2O)[C@@H](O)[C@@H]1O` [Sucrose], the CC50 at 24 h is > 90 µM.

On to `CN1C(=S)CN=C(c2ccccc2)c2cc(Cl)ccc21` [Sulazepam], for which the CC50 at 24 h was > 50 µM.

In the case of `CC1(C)[C@H](C(=O)O)N2C(=O)C[C@H]2S1(=O)=O` [Sulbactam], the half-maximal cytotoxic concentration (CC50) at 24 h was > 50 µM.

In the case of `CC1(C)S[C@@H]2[C@H](NC(=O)C(c3ccccc3)S(=O)(=O)O)C(=O)N2[C@H]1C(=O)O` (stereo partly drawn) [Sulbenicillin disodium], the half-maximal cytotoxic concentration (CC50) at 24 h was > 50 µM.

The molecule `S=C1SCN(Cc2ccccc2)CN1Cc1ccccc1` [Sulbentine] yielded a cytotoxic concentration (CC50) at 24 h of 23.1 µM.

Consider `CCOC(=O)c1ccc(NC(=O)CN2CCCCC2)cc1` [Sulcaine], for which the 50% cytotoxic concentration (CC50) at 24 h is > 50 µM.

Regarding `Nc1ccc(S(=O)(=O)Nc2ccccc2)cc1` [Sulfabenz], the CC50 at 24 h was > 50 µM.

For the molecule `Nc1ccc(S(=O)(=O)NC(=O)c2ccccc2)cc1` [Sulfabenzamide], the CC50 at 24 h was > 20 µM.

As for `Cc1nc(NS(=O)(=O)c2ccc(N)cc2)nc(C)c1Br` [Sulfabromomethazine], the half-maximal cytotoxic concentration (CC50) at 24 h is > 50 µM.

Turning to `NC(=O)NS(=O)(=O)c1ccc(N)cc1` [Sulfacarbamide], the half-maximal cytotoxic concentration (CC50) at 24 h is > 50 µM.

For the molecule `CC(=O)NS(=O)(=O)c1ccc(N)cc1` [Sulfacetamide], the CC50 at 24 h is > 90 µM.

Turning to `Nc1ccc(S(=O)(=O)Nc2ncccn2)cc1` [Sulfadiazine], the 50% cytotoxic concentration (CC50) at 24 h was > 20 µM.

With `COc1cc(NS(=O)(=O)c2ccc(N)cc2)nc(OC)n1` [Sulfadimethoxine], the half-maximal cytotoxic concentration (CC50) at 24 h was > 20 µM.

Regarding `COc1ncnc(NS(=O)(=O)c2ccc(N)cc2)c1OC` [Sulfadoxine], the CC50 at 24 h is > 50 µM.

As to `CCc1nnc(NS(=O)(=O)c2ccc(N)cc2)s1` [Sulfaethidole], the half-maximal cytotoxic concentration (CC50) at 24 h was > 50 µM.

Turning to `CCOc1ccc(NS(=O)(=O)c2ccc(N)cc2)nn1` [Sulfaethoxypyridazine], the CC50 at 24 h was > 50 µM.

With `[H]/N=C(/N)NS(=O)(=O)c1ccc(N)cc1` [Sulfaguanidine], the CC50 at 24 h is > 20 µM.

Take `COc1nccnc1NS(=O)(=O)c1ccc(N)cc1` [Sulfalene]: the 50% cytotoxic concentration (CC50) at 24 h is > 50 µM.

For `Cc1ccnc(NS(=O)(=O)c2ccc(N)cc2)n1` [Sulfamerazine], the 50% cytotoxic concentration (CC50) at 24 h was > 20 µM.

As to `COc1cnc(NS(=O)(=O)c2ccc(N)cc2)nc1` [Sulfameter], the CC50 at 24 h was > 20 µM.

Consider `Cc1cc(C)nc(NS(=O)(=O)c2ccc(N)cc2)n1` [Sulfamethazine], for which the 50% cytotoxic concentration (CC50) at 24 h is > 90 µM.

As for `Cc1nnc(NS(=O)(=O)c2ccc(N)cc2)s1` [Sulfamethizole], the half-maximal cytotoxic concentration (CC50) at 24 h is > 50 µM.

As to `COc1cc(NS(=O)(=O)c2ccc(N)cc2)nc(C)n1` [Sulfamethomidine], the 50% cytotoxic concentration (CC50) at 24 h is > 50 µM.

Regarding `COc1ccc(NS(=O)(=O)c2ccc(N)cc2)nn1` [Sulfamethoxypyridazine], the CC50 at 24 h was > 20 µM.

Turning to `COc1cc(NS(=O)(=O)c2ccc(N)cc2)ncn1` [Sulfamonomethoxine], the 50% cytotoxic concentration (CC50) at 24 h is > 20 µM.

On to `CCN(CC)c1ccc(C(=C2C=CC(=[N+](CC)CC)C=C2)c2ccc(S(=O)(=O)O)cc2S(=O)(=O)[O-])cc1` [Sulfan blue], for which the cytotoxic concentration (CC50) at 24 h is > 90 µM.

For `CC(=O)Nc1ccc(S(=O)(=O)Nc2ccc([N+](=O)[O-])cc2)cc1` [Sulfanitran], the cytotoxic concentration (CC50) at 24 h was > 50 µM.

Staying with this series, now noted: rat, gh3-tre-luc cells, AC50 (uM) modified / 1000, Tox21_110001=Tox21_200042; viability, 1 nM T3 present, 24 h.
In the case of `C=C(Cl)CSC(=S)N(CC)CC` [Sulfallate], the CC50 at 24 h is > 100 µM.

The same series, now with this note: rat, gh3-tre-luc cells, AC50 (uM) modified / 1000, Tox21_110001=Tox21_200635; viability, 1 nM T3 present, 24 h.
In the case of `N#CCCC#N` [Succinonitrile], the CC50 at 24 h was > 90 µM.
